Reference: the supplement of paper PMC10477900
Structures can show the parent of a compound that is named as a salt.

Experiments:
HCT116 [1] = experiment: viability inhibition vs untreated; higher = more cytotoxic; conditions: 72 h
HCT116 [2] = conditions: 72 h
Protocol: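 HCT116 control and MTA1-KO (CRISPR) HCT116 cells were seeded in 384-well plates (800 cells/well), treated 16 h later with 237 metabolism-related anticancer drugs at five doses (10 uM, 2 uM, 400 nM, 80 nM, 16 nM) for 72 h, two replicates; viability by CCK8. Values are % inhibition of viability relative to untreated cells, plus fitted IC50.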

## O=[N+]([O-])c1ccc(Nc2ccccc2-c2ccccc2)c2nonc12
HCT116 [1]; genotype: MTA1-KO, 16 nM
  viability inhibition: 2.01%
HCT116 [1]; genotype: MTA1-KO, 80 nM
  viability inhibition: -8.53%
HCT116 [1]; genotype: MTA1-KO, 400 nM
  viability inhibition: -10.8%
HCT116 [1]; genotype: MTA1-KO, 2000 nM
  viability inhibition: -6.96%
HCT116 [1]; genotype: MTA1-KO, 10000 nM
  viability inhibition: 68.6%
HCT116 [1]; genotype: control, 16 nM
  viability inhibition: 9.25%
HCT116 [1]; genotype: control, 80 nM
  viability inhibition: 24.7%
HCT116 [1]; genotype: control, 400 nM
  viability inhibition: 13.3%
HCT116 [1]; genotype: control, 2000 nM
  viability inhibition: 14.3%
HCT116 [1]; genotype: control, 10000 nM
  viability inhibition: 23.9%
HCT116 [2]; genotype: MTA1-KO
  IC50: 8.18 µM
HCT116 [2]; genotype: control
  IC50: > 10 µM

## CC(C)n1c(/C=C/[C@H](O)C[C@H](O)CC(=O)O)c(-c2ccc(F)cc2)c2ccccc21 (racemic) [Fluvastatin sodium salt]
HCT116 [1]; genotype: MTA1-KO, 16 nM
  viability inhibition: 12.1%
HCT116 [1]; genotype: MTA1-KO, 80 nM
  viability inhibition: 16.7%
HCT116 [1]; genotype: MTA1-KO, 400 nM
  viability inhibition: 12.8%
HCT116 [1]; genotype: MTA1-KO, 2000 nM
  viability inhibition: 19.3%
HCT116 [1]; genotype: MTA1-KO, 10000 nM
  viability inhibition: 60.4%
HCT116 [1]; genotype: control, 16 nM
  viability inhibition: 5.71%
HCT116 [1]; genotype: control, 80 nM
  viability inhibition: 10.5%
HCT116 [1]; genotype: control, 400 nM
  viability inhibition: 12.1%
HCT116 [1]; genotype: control, 2000 nM
  viability inhibition: 38%
HCT116 [1]; genotype: control, 10000 nM
  viability inhibition: 32.9%
HCT116 [2]; genotype: MTA1-KO
  IC50: 8.96 µM
HCT116 [2]; genotype: control
  IC50: > 10 µM

## Nc1ccccc1S(N)(=O)=O [2-Aminobenzenesulfonamide]
HCT116 [1]; genotype: MTA1-KO, 16 nM
  viability inhibition: -12%
HCT116 [1]; genotype: MTA1-KO, 80 nM
  viability inhibition: -6.34%
HCT116 [1]; genotype: MTA1-KO, 400 nM
  viability inhibition: -8.18%
HCT116 [1]; genotype: MTA1-KO, 2000 nM
  viability inhibition: -6.12%
HCT116 [1]; genotype: MTA1-KO, 10000 nM
  viability inhibition: -8.74%
HCT116 [1]; genotype: control, 16 nM
  viability inhibition: -4.67%
HCT116 [1]; genotype: control, 80 nM
  viability inhibition: -10.5%
HCT116 [1]; genotype: control, 400 nM
  viability inhibition: -7.82%
HCT116 [1]; genotype: control, 2000 nM
  viability inhibition: -0.883%
HCT116 [1]; genotype: control, 10000 nM
  viability inhibition: 19.7%
HCT116 [2]; genotype: MTA1-KO
  IC50: > 10 µM
HCT116 [2]; genotype: control
  IC50: > 10 µM

## COc1cc2c(cc1O)CC[C@@H]1[C@@H]2CC[C@]2(C)[C@@H](O)CC[C@@H]12 [2-Methoxyestradiol]
HCT116 [1]; genotype: MTA1-KO, 16 nM
  viability inhibition: 12.6%
HCT116 [1]; genotype: MTA1-KO, 80 nM
  viability inhibition: 9.89%
HCT116 [1]; genotype: MTA1-KO, 400 nM
  viability inhibition: 15.7%
HCT116 [1]; genotype: MTA1-KO, 2000 nM
  viability inhibition: 38.7%
HCT116 [1]; genotype: MTA1-KO, 10000 nM
  viability inhibition: 80.2%
HCT116 [1]; genotype: control, 16 nM
  viability inhibition: 8.28%
HCT116 [1]; genotype: control, 80 nM
  viability inhibition: 14.6%
HCT116 [1]; genotype: control, 400 nM
  viability inhibition: 22.6%
HCT116 [1]; genotype: control, 2000 nM
  viability inhibition: 24.1%
HCT116 [1]; genotype: control, 10000 nM
  viability inhibition: 33.6%
HCT116 [2]; genotype: MTA1-KO
  IC50: 3.34 µM
HCT116 [2]; genotype: control
  IC50: > 10 µM

## CN(Cc1ccccc1)c1ccc2cc(C(=O)O)c(=O)oc2c1 [7ACC2]
HCT116 [1]; genotype: MTA1-KO, 16 nM
  viability inhibition: -27.3%
HCT116 [1]; genotype: MTA1-KO, 80 nM
  viability inhibition: -0.988%
HCT116 [1]; genotype: MTA1-KO, 400 nM
  viability inhibition: 20.9%
HCT116 [1]; genotype: MTA1-KO, 2000 nM
  viability inhibition: 24.6%
HCT116 [1]; genotype: MTA1-KO, 10000 nM
  viability inhibition: 29%
HCT116 [1]; genotype: control, 16 nM
  viability inhibition: 15%
HCT116 [1]; genotype: control, 80 nM
  viability inhibition: -0.73%
HCT116 [1]; genotype: control, 400 nM
  viability inhibition: 50.7%
HCT116 [1]; genotype: control, 2000 nM
  viability inhibition: 64.6%
HCT116 [1]; genotype: control, 10000 nM
  viability inhibition: 80.8%
HCT116 [2]; genotype: MTA1-KO
  IC50: > 10 µM
HCT116 [2]; genotype: control
  IC50: 0.373 µM

## CC(N)=NCc1cccc(CN)c1 [1400W dihydrochloride]
HCT116 [1]; genotype: MTA1-KO, 16 nM
  viability inhibition: 5.1%
HCT116 [1]; genotype: MTA1-KO, 80 nM
  viability inhibition: -4.81%
HCT116 [1]; genotype: MTA1-KO, 400 nM
  viability inhibition: -3.44%
HCT116 [1]; genotype: MTA1-KO, 2000 nM
  viability inhibition: -9.66%
HCT116 [1]; genotype: MTA1-KO, 10000 nM
  viability inhibition: 42.6%
HCT116 [1]; genotype: control, 16 nM
  viability inhibition: 5.38%
HCT116 [1]; genotype: control, 80 nM
  viability inhibition: -11.1%
HCT116 [1]; genotype: control, 400 nM
  viability inhibition: -13.9%
HCT116 [1]; genotype: control, 2000 nM
  viability inhibition: -9.74%
HCT116 [1]; genotype: control, 10000 nM
  viability inhibition: 2.89%
HCT116 [2]; genotype: MTA1-KO
  IC50: > 10 µM
HCT116 [2]; genotype: control
  IC50: > 10 µM

## Cc1ccc2c(c1)C(=O)[C@]1(O)CCN(c3ccccc3)C1=N2 [(-)-Blebbistatin]
HCT116 [1]; genotype: MTA1-KO, 16 nM
  viability inhibition: 2.62%
HCT116 [1]; genotype: MTA1-KO, 80 nM
  viability inhibition: -5.47%
HCT116 [1]; genotype: MTA1-KO, 400 nM
  viability inhibition: -2.06%
HCT116 [1]; genotype: MTA1-KO, 2000 nM
  viability inhibition: -3.88%
HCT116 [1]; genotype: MTA1-KO, 10000 nM
  viability inhibition: -5.36%
HCT116 [1]; genotype: control, 16 nM
  viability inhibition: -9%
HCT116 [1]; genotype: control, 80 nM
  viability inhibition: -4.56%
HCT116 [1]; genotype: control, 400 nM
  viability inhibition: -13.5%
HCT116 [1]; genotype: control, 2000 nM
  viability inhibition: -18.9%
HCT116 [1]; genotype: control, 10000 nM
  viability inhibition: -8.68%
HCT116 [2]; genotype: MTA1-KO
  IC50: > 10 µM
HCT116 [2]; genotype: control
  IC50: > 10 µM

## O=C(O[C@@H]1Cc2c(O)cc(O)cc2O[C@@H]1c1cc(O)c(O)c(O)c1)c1cc(O)c(O)c(O)c1 [(-)-Epigallocatechin Gallate]
HCT116 [1]; genotype: MTA1-KO, 16 nM
  viability inhibition: 13%
HCT116 [1]; genotype: MTA1-KO, 80 nM
  viability inhibition: -1.62%
HCT116 [1]; genotype: MTA1-KO, 400 nM
  viability inhibition: 5.38%
HCT116 [1]; genotype: MTA1-KO, 2000 nM
  viability inhibition: 12%
HCT116 [1]; genotype: MTA1-KO, 10000 nM
  viability inhibition: 19.4%
HCT116 [1]; genotype: control, 16 nM
  viability inhibition: -8.68%
HCT116 [1]; genotype: control, 80 nM
  viability inhibition: -5.93%
HCT116 [1]; genotype: control, 400 nM
  viability inhibition: -14.9%
HCT116 [1]; genotype: control, 2000 nM
  viability inhibition: -4.61%
HCT116 [1]; genotype: control, 10000 nM
  viability inhibition: -3.45%
HCT116 [2]; genotype: MTA1-KO
  IC50: > 10 µM
HCT116 [2]; genotype: control
  IC50: > 10 µM

## O=C(O)[C@@]1(CCCCCCOc2ccc(Cl)cc2)CO1 [(R)-Etomoxir sodium salt]
HCT116 [1]; genotype: MTA1-KO, 16 nM
  viability inhibition: -11.4%
HCT116 [1]; genotype: MTA1-KO, 80 nM
  viability inhibition: -21.5%
HCT116 [1]; genotype: MTA1-KO, 400 nM
  viability inhibition: -17.4%
HCT116 [1]; genotype: MTA1-KO, 2000 nM
  viability inhibition: -13.9%
HCT116 [1]; genotype: MTA1-KO, 10000 nM
  viability inhibition: 37.6%
HCT116 [1]; genotype: control, 16 nM
  viability inhibition: 12.3%
HCT116 [1]; genotype: control, 80 nM
  viability inhibition: 19.7%
HCT116 [1]; genotype: control, 400 nM
  viability inhibition: 14.6%
HCT116 [1]; genotype: control, 2000 nM
  viability inhibition: 15.3%
HCT116 [1]; genotype: control, 10000 nM
  viability inhibition: 26.1%
HCT116 [2]; genotype: MTA1-KO
  IC50: > 10 µM
HCT116 [2]; genotype: control
  IC50: > 10 µM

## C[C@H](Oc1cc(-c2cnn(C3CCNCC3)c2)cnc1N)c1c(Cl)ccc(F)c1Cl [(S)-crizotinib]
HCT116 [1]; genotype: MTA1-KO, 16 nM
  viability inhibition: -3.98%
HCT116 [1]; genotype: MTA1-KO, 80 nM
  viability inhibition: -2.9%
HCT116 [1]; genotype: MTA1-KO, 400 nM
  viability inhibition: -13.5%
HCT116 [1]; genotype: MTA1-KO, 2000 nM
  viability inhibition: -16.1%
HCT116 [1]; genotype: MTA1-KO, 10000 nM
  viability inhibition: 66.9%
HCT116 [1]; genotype: control, 16 nM
  viability inhibition: 6.82%
HCT116 [1]; genotype: control, 80 nM
  viability inhibition: -13.4%
HCT116 [1]; genotype: control, 400 nM
  viability inhibition: -0.064%
HCT116 [1]; genotype: control, 2000 nM
  viability inhibition: -12.1%
HCT116 [1]; genotype: control, 10000 nM
  viability inhibition: -7.51%
HCT116 [2]; genotype: MTA1-KO
  IC50: 9.42 µM
HCT116 [2]; genotype: control
  IC50: > 10 µM
